Where two headings read alike, the source gives them in different places. *1 amine or outer side, *2 acyl side, *3 side chain or, on linkers, in order; H or OH if unused. Where a SMILES comes first, the peptide text is derived from it. Bridges are numbered along the chain shown (N, C = ends). [ ]: non-standard residue; d: D form. The star is where a group is joined. hPhe(3-Cl-4-CF3) = N[C@@H](CCc1ccc(C(F)(F)F)c(Cl)c1)C(=O)O; X5 = C=CCN([C@@H](Cc1ccc(C(F)(F)F)cc1)C(=O)[*:2])[*:1]; NPrPhe(4-CF3) = CCCN[C@@H](Cc1ccc(C(F)(F)F)cc1)C(=O)O; NMeGly(cPent) = CN[C@H](C(=O)O)C1CCCC1; NMeD = CN[C@@H](CC(=O)O)C(=O)O; NMeL = CN[C@@H](CC(C)C)C(=O)O; Morpholide = C1CN(*)CCO1; Ac5c = NC1(C(=O)O)CCCC1; Aze = O=C(O)[C@@H]1CCN1; Sar = CNCC(=O)O
How the values were obtained:
[1] = molecular target: GDP-bound KRAS wild-type protein (Homo sapiens, UniProt P01116); experiment: Binding to KRAS by surface plasmon resonance (SPR), Single Cycle Kinetics
Chain of GDP-bound KRAS wild-type protein (P01116 whole entry): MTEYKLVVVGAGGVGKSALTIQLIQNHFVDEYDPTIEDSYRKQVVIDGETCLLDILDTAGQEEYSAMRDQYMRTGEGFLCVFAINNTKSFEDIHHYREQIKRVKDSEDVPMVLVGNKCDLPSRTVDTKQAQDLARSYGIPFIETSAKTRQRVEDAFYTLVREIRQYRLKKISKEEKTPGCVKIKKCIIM

[2] = system: human lung cancer strain NCI-H441;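 further: cell proliferation inhibition after four days measured by CellTiter-Glo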
[3] = molecular target: GDP-bound HRAS wild-type protein (Homo sapiens, UniProt P01112); experiment: Binding to HRAS by surface plasmon resonance (SPR), Single Cycle Kinetics; settings: for HRAS/KRAS (ratio of KD value for HRAS to KD value for KRAS): GDP-bound HRAS wild-type protein vs GDP-bound KRAS wild-type protein; for HRAS/KRAS (ratio of KD value with respect to GDP-bound HRAS wild-type protein to KD value with respect to KRAS): SPR KD ratio HRAS/KRAS, class symbols
Chain of GDP-bound HRAS wild-type protein (P01112 whole entry): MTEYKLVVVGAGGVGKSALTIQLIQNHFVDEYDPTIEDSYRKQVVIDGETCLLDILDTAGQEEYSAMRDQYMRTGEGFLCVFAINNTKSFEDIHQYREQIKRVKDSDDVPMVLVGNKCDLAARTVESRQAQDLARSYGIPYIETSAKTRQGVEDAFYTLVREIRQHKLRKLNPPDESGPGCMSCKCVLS

[4] = molecular target: GDP-bound NRAS wild-type protein (Homo sapiens, UniProt P01111); experiment: Binding to NRAS by surface plasmon resonance (SPR), Single Cycle Kinetics; settings: SPR, GDP-bound NRAS wild-type protein vs GDP-bound KRAS wild-type protein
Chain of GDP-bound NRAS wild-type protein (P01111 whole entry): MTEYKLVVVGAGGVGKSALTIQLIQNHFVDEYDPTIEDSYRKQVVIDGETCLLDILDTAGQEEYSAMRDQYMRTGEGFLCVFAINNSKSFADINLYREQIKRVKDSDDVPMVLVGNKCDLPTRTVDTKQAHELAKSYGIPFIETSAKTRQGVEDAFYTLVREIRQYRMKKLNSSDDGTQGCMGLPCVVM

[5] = SPR Single Cycle Kinetics, GDP-bound KRAS wild-type protein, 1:1 binding model, read-out: KRAS KD
[6] = SPR, Single Cycle Kinetics, GDP-bound KRAS wild-type protein, read-out: KRAS KD

| Structure (SMILES) | Kd [1, 5] | IC50 [2] | HRAS/KRAS (ratio of KD value for HRAS to KD value for KRAS) ([3]; SPR) | NRAS/KRAS (ratio of KD value for NRAS to KD value for KRAS) [4] | Kd [1, 6] | HRAS/KRAS (ratio of KD value with respect to GDP-bound HRAS wild-type protein to KD value with respect to KRAS) [3] | Kd ([1]; SPR, Single Cycle Kinetics, 1:1 binding model, read-out: KD value with respect to GDP-bound KRAS wild-type protein) | IC50 ([2]; read-out: NCI-H441 cell proliferation inhibitory activity, 50% proliferation inhibitory concentration (IC50 value), NCI-H441, four days, CellTiter-Glo) | ratio of the KD value with respect to GDP-bound HRAS wild-type protein to the KD value with respect to KRAS ([3]; SPR, KD(HRAS)/KD(KRAS)) |
| --- | --- | --- | --- | --- | --- | --- | --- | --- | --- |
| CCCN1C(=O)[C@@H]2CCN2C(=O)[C@H](C)NC(=O)[C@H]([C@@H](C)CC)NC(=O)[C@H](CC(C)C)N(C)C(=O)C[C@@H](C(=O)N2CCOCC2)N(C)C(=O)[C@H](C2CCCC2)N(C)C(=O)C2(CCCC2)NC(=O)[C@@H]2CCCN2C(=O)[C@H](CCc2ccc(C(F)(F)F)c(Cl)c2)NC(=O)CN(C)C(=O)[C@@H]1Cc1ccc(C(F)(F)F)cc1 [PP0078] ([NMeL]IA[Aze][NPrPhe(4-CF3)][Sar][hPhe(3-Cl-4-CF3)]P[Ac5c][NMeGly(cPent)][NMeD]-Morpholide; lactam N-11) | 0.19 nM | 4.8 nM | B (a compound having 3 or more and less than 10 is denoted as B) | C (A compound having a KD ratio of 0.1 or more and less than 3 is denoted as C) |  |  |  |  |  |
| C=CCN1C(=O)CN(C)C(=O)CN(C)C(=O)[C@H]([C@@H](C)CC)NC(=O)[C@H](CC(C)C)N(C)C(=O)C[C@@H](C(=O)N2CCOCC2)N(C)C(=O)[C@H](C2CCCC2)N(C)C(=O)C2(CCCC2)NC(=O)[C@@H]2CCCN2C(=O)[C@H](CCc2ccc(C(F)(F)F)c(Cl)c2)NC(=O)CN(C)C(=O)[C@@H]1Cc1ccc(C(F)(F)F)cc1 [PP0128] ([NMeL]I[Sar][Sar][X5][Sar][hPhe(3-Cl-4-CF3)]P[Ac5c][NMeGly(cPent)][NMeD]-Morpholide; lactam N-11) | 0.25 nM | 10.4 nM | C (A compound having a KD ratio of 0.1 or more and less than 3 is denoted as C) | C (A compound having a KD ratio of 0.1 or more and less than 3 is denoted as C) |  |  |  |  |  |
| CCC(CC)[C@H]1C(=O)N(C)[C@H](C(=O)N(C)C)CC(=O)N(C)[C@@H](COC)C(=O)N[C@@H]([C@@H](C)CC)C(=O)N(C2CC2)CC(=O)N(C)[C@H]2C/C=C\CCN(C2=O)[C@@H](CC2CCCCC2)C(=O)N(C)CC(=O)N[C@@H](CCc2ccc(Cl)c(Cl)c2)C(=O)N2C[C@H](OC(C)C)C[C@H]2C(=O)NC2(CC(C)(C)C2)C(=O)N1C [PP2517] |  | 562 nM | A (a compound having 10 or more and less than 20 is denoted as A) |  | 9.3 nM |  |  |  |  |
| CCC[C@H]1C(=O)N[C@@H](CC(C)C)C(=O)N(C2CC2)CC(=O)N(C)[C@H]2C/C=C\CCN(C2=O)[C@@H](Cc2ccc(C)cc2)C(=O)N(C)CC(=O)N[C@@H](CCc2ccc(C(F)(F)F)c(Cl)c2)C(=O)N2C[C@H](OCC)C[C@H]2C(=O)NC2(CCC2)C(=O)N(C)[C@@H](C2CCCC2)C(=O)N(C)[C@H](C(=O)N(C)C)CC(=O)N1C [PP2543] | 4.2 nM | 179 nM |  |  |  | B (a compound having 3 or more and less than 10 is denoted as B) |  |  |  |
| CC[C@H](C)[C@@H]1NC(=O)[C@H](COC)N(C)C(=O)C[C@@H](C(=O)N2CCCCC2)N(C)C(=O)[C@H](C2CCCC2)N(C)C(=O)C2(CC(C)(C)C2)NC(=O)[C@@H]2C[C@@H](OC(C)C)CN2C(=O)[C@H](CCc2cc(F)c(C(F)(F)F)c(F)c2)NC(=O)CN(C)C(=O)[C@H](Cc2ccc(C(F)(F)F)cc2)N2CC/C=C\C[C@@H](C2=O)N(C)C(=O)CN(C)C1=O [PP2663] | 0.24 nM | 11.2 nM |  |  |  | A (a compound having 10 or more and less than 20 is denoted as A) |  |  |  |
| CCC[C@H]1C(=O)N[C@@H]([C@@H](C)CC)C(=O)N(C)CC(=O)N(C)[C@H]2C/C=C\CCN(C2=O)[C@@H](Cc2ccc(C(F)(F)F)cc2)C(=O)N(C)CC(=O)N[C@@H](CCc2ccc(C(F)(F)F)c(OC)c2)C(=O)N2C[C@H](OCC)C[C@H]2C(=O)N(C)C2(CCC2)C(=O)N(C)[C@@H](C2CCCC2)C(=O)N(C)[C@H](C(=O)N2CCCCC2)CC(=O)N1C [PP3103, (2S,8S,12R,14S,20S,23S,27S,30S,36S,38Z)-20-cyclopentyl-12-ethoxy-8-[2-[3-methoxy-4-(trifluoromethyl)phenyl]ethyl]-4,16,19,22,26,32,35-heptamethyl-30-[(1S)-1-methylpropyl]-23-(piperidine-1-carbonyl)-27-propyl-2-[[4-(trifluoromethyl)phenyl]methyl]spiro[1,4,7,10,16,19,22,26,29,32,35-undecazatricyclo[34.5.1.0^10,14]dotetracont-38-ene-17,1′-cyclobutane]-3,6,9,15,18,21,25,28,31,34,42-undecone] |  |  | A (a compound having 10 or more and less than 20 is denoted as A) |  | 0.21 nM |  | 0.21 nM | 21.5 nM | A (a compound having 10 or more and less than 20 is denoted as A) |

Source: US20240158446A1, “CYCLIC COMPOUND HAVING SELECTIVE INHIBITORY ACTION ON KRAS OVER HRAS AND NRAS” (CHUGAI SEIYAKU KABUSHIKI KAISHA, priority 2021, published 2024)
